As usually defined, the IC50 is the concentration that gives 50% inhibition.

Structures are written as SMILES. Structures can show the parent of a compound that is named as a salt. Where two headings read alike, the source gives them in different places.

This is an account of results in US10968203B2, “Pyrimidinyl-pyridyloxy-naphthyl compounds and methods of treating IRE1-related diseases and disorders” (Genentech, Inc., priority 2017, dated 2021).

In this assay the test system is XBP1s-luc 293 LUC. Put plainly: cellular PD assay, XBP1s-LUC reporter (Example 903). Type of assay: cell-based. The settings on record: read-out: XBP1s-luc 293 LUC (IC50). Summed up:
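A luciferase fusion, in frame and expressed only when the XBP1 transcript is spliced, served as the readout of cellular IRE1α activity in an XBP1-Luc reporter line.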

Regarding `Cc1ccc2c(NS(=O)(=O)C3CCCCC3)c(F)ccc2c1Oc1ncccc1-c1ccnc(N[C@H]2CCCNC2)n1` [Example 282, (S)—N-(2-Fluoro-6-methyl-5-((3-(2-(piperidin-3-ylamino)pyrimidin-4-yl)pyridin-2-yl)oxy)naphthalen-1-yl)cyclohexanesulfonamide], the IC50 (Table 1) amounted to 0.0248 µM. `Cc1ccc2c(NS(=O)(=O)CC3CC3)c(F)ccc2c1Oc1ncccc1-c1ccnc(N[C@H]2CCCNC2)n1` [Example 405, (S)-1-Cyclopropyl-N-(2-fluoro-6-methyl-5-((3-(2-(piperidin-3-ylamino)pyrimidin-4-yl)pyridin-2-yl)oxy)naphthalen-1-yl)methanesulfonamide hydrochloride]: the half-maximal inhibitory concentration (IC50) (Table 2) came to 0.025 µM.

Turning to `Cc1ccc2c(NCC(C)C#N)cccc2c1Oc1ncccc1-c1ccnc(N[C@H]2CCCNC2)n1` (single isomer, unassigned) [Example 382], for the setting “Table 1”, the IC50 stood at 0.0623 µM. Regarding `Cc1ccc2c(NC(=O)c3ccccn3)cccc2c1Oc1ncccc1-c1ccnc(N[C@H]2CCCNC2)n1` [Example 175, (S)—N-(6-Methyl-5-((3-(2-(piperidin-3-ylamino)pyrimidin-4-yl)pyridin-2-yl)oxy)naphthalen-1-yl)picolinamide], the IC50 (Table 1) was determined as 0.333 µM. On to `Cc1ccc2c(Nc3ccn(C)n3)c(F)ccc2c1Oc1ncccc1-c1ccnc(N[C@H]2CCCNC2)n1` [Example 359, (S)-4-(2-((6-Fluoro-2-methyl-5-((1-methyl-1H-pyrazol-3-yl)amino)naphthalen-1-yl)oxy)pyridin-3-yl)-N-(piperidin-3-yl)pyrimidin-2-amine], for which the IC50 (Table 1) was 0.438 µM. For the molecule `CCCCNc1cccc2c(Oc3ncccc3-c3ccnc(N[C@H]4CCCNC4)n3)c(C)ccc12` [Example 197, (S)-4-(2-((5-(Butylamino)-2-methylnaphthalen-1-yl)oxy)pyridin-3-yl)-N-(piperidin-3-yl)pyrimidin-2-amine], the concentration for half-maximal inhibition (IC50) (Table 1) was 0.228 µM. Turning to `CCC(F)(F)CS(=O)(=O)Nc1c(F)ccc2c(Oc3ncccc3-c3ccnc(N[C@H]4CCCNC4)n3)c(C)ccc12` [Example 456, (S)-2,2-Difluoro-N-(2-fluoro-6-methyl-5-((3-(2-(piperidin-3-ylamino)pyrimidin-4-yl)pyridin-2-yl)oxy)naphthalen-1-yl)butane-1-sulfonamide hydrochloride], the 50% inhibitory concentration (IC50) (Table 2) came to 0.011 µM.

As for `Cc1ccc2c(NS(=O)(=O)N3CCCCC3)cccc2c1Oc1ncccc1-c1ccnc(N[C@H]2CCCNC2)n1` [Example 114, (S)—N-(6-Methyl-5-((3-(2-(piperidin-3-ylamino)pyrimidin-4-yl)pyridin-2-yl)oxy)naphthalen-1-yl)piperidine-1-sulfonamide hydrochloride], the IC50 (Table 1) is 0.382 µM.

Turning to `Cc1ccc2c(NS(=O)(=O)Cc3ccccc3Cl)c(F)ccc2c1Oc1ncccc1-c1ccnc(N[C@H]2CCCNC2)n1` [Example 102, (S)-1-(2-Chlorophenyl)-N-(2-fluoro-6-methyl-5-((3-(2-(piperidin-3-ylamino)pyrimidin-4-yl)pyridin-2-yl)oxy)naphthalen-1-yl)methanesulfonamide], for the setting “Table 1”, the half-maximal inhibitory concentration (IC50) was 0.0046 µM. In the case of `Cc1ccc2c(NS(=O)(=O)CC(F)(F)F)cccc2c1Oc1ncccc1-c1ccnc(N[C@H]2CCCNC2)n1` [Example 122, (S)-2,2,2-Trifluoro-N-(6-methyl-5-((3-(2-(piperidin-3-ylamino)pyrimidin-4-yl)pyridin-2-yl)oxy)naphthalen-1-yl)ethane-1-sulfonamide hydrochloride], the half-maximal inhibitory concentration (IC50) (Table 1) was found to be 0.105 µM. As to `CCCCS(=O)(=O)Nc1c(F)ccc2c(Oc3ncccc3-c3ccnc(N[C@H]4CCCNC4)n3)c(C)ccc12` [Example 397, (S)—N-(2-Fluoro-6-methyl-5-((3-(2-(piperidin-3-ylamino)pyrimidin-4-yl)pyridin-2-yl)oxy)naphthalen-1-yl)butane-1-sulfonamide hydrochloride], the IC50 (Table 2) worked out at 0.034 µM. In the case of `CC[C@H](O)CNc1cccc2c(Oc3ncccc3-c3ccnc(N[C@H]4CCCNC4)n3)c(C)ccc12` [Example 313, (S)-1-((6-Methyl-5-((3-(2-((S)-piperidin-3-ylamino)pyrimidin-4-yl)pyridin-2-yl)oxy)naphthalen-1-yl)amino)butan-2-ol], for the setting “Table 1”, the 50% inhibitory concentration (IC50) was found to be 0.148 µM. On to `Cc1ccc2c(NC(=O)C(C)(C)C#N)cccc2c1Oc1ncccc1-c1ccnc(N[C@H]2CCCNC2)n1` [Example 363, (S)-2-Cyano-2-methyl-N-(6-methyl-5-((3-(2-(piperidin-3-ylamino)pyrimidin-4-yl)pyridin-2-yl)oxy)naphthalen-1-yl)propanamide], for which the IC50 (Table 1) worked out at 0.408 µM. For the molecule `Cc1ccc2c(N[C@@H]3CCC[C@H]3O)cccc2c1Oc1ncccc1-c1ccnc(N[C@H]2CCCNC2)n1` (single isomer, unassigned) [Example 395, hydrochloride], the half-maximal inhibitory concentration (IC50) (Table 2) is 0.109 µM. With `Cc1ccc2c(N[C@H]3CCCC[C@@H]3O)cccc2c1Oc1ncccc1-c1ccnc(N[C@H]2CCCNC2)n1` (single isomer, unassigned) [Example 447, hydrochloride], where the note is “Table 2”, the IC50 stood at 0.146 µM. With `CCCCS(=O)(=O)Nc1cccc2c(Oc3ncccc3-c3ccnc(N[C@H]4CCCNC4)n3)c(C)ccc12` [Example 136, (S)—N-(6-Methyl-5-((3-(2-(piperidin-3-ylamino)pyrimidin-4-yl)pyridin-2-yl)oxy)naphthalen-1-yl) butane-1-sulfonamide], under “Table 1”, the IC50 is 0.297 µM.

For `CO[C@H]1CNC[C@@H](Nc2nccc(-c3cccnc3Oc3c(C)ccc4c(NS(=O)(=O)Cc5ccc(Cl)cc5)cccc34)n2)C1` (single isomer, unassigned) [Example 205], under “Table 1”, the IC50 was determined as 0.13 µM.

Turning to `Cc1nc(CS(=O)(=O)Nc2c(F)ccc3c(Oc4ncccc4-c4ccnc(N[C@@H]5CNC[C@@H](F)C5)n4)c(C)ccc23)cs1` (single isomer, unassigned) [Example 490, hydrochloride], the IC50 (Table 2) worked out at 0.004 µM. With `Cc1ccc2c(NCc3csc(C(C)C)n3)cccc2c1Oc1ncccc1-c1ccnc(N[C@H]2CCCNC2)n1` [Example 256, (S)-4-(2-((5-(((2-Isopropylthiazol-4-yl)methyl)amino)-2-methylnaphthalen-1-yl)oxy)pyridin-3-yl)-N-(piperidin-3-yl)pyrimidin-2-amine], under “Table 1”, the IC50 stood at 0.21 µM. Consider `Cc1ccc2c(NS(=O)(=O)Cc3cccc(C#N)c3)c(F)ccc2c1Oc1ncccc1-c1ccnc(N[C@H]2CCCNC2)n1` [Example 425, (S)-1-(3-Cyanophenyl)-N-(2-fluoro-6-methyl-5-((3-(2-(piperidin-3-ylamino)pyrimidin-4-yl)pyridin-2-yl)oxy)naphthalen-1-yl)methanesulfonamide hydrochloride], for which the IC50 (Table 2) amounted to 0.016 µM. Same read-out and setting: to `Cc1ccc2c(N[C@@H]3CCCC[C@H]3O)cccc2c1Oc1ncccc1-c1ccnc(N[C@H]2CCCNC2)n1` (single isomer, unassigned) [Example 446, hydrochloride] belongs 0.067 µM. `Cc1ccc2c(NS(=O)(=O)C[C@H]3CC34CC4)c(F)ccc2c1Oc1ncccc1-c1ccnc(N[C@H]2CCCNC2)n1` (single isomer, unassigned) [Example 474, hydrochloride]: the concentration for half-maximal inhibition (IC50) (Table 2) came out at 0.052 µM. On to `Cc1ccc2c(NS(=O)(=O)CCC(F)(F)F)c(F)ccc2c1Oc1ncccc1-c1ccnc(N[C@H]2CCCNC2)n1` [Example 276, (S)-3,3,3-Trifluoro-N-(2-fluoro-6-methyl-5-((3-(2-(piperidin-3-ylamino)pyrimidin-4-yl)pyridin-2-yl)oxy)naphthalen-1-yl)propane-1-sulfonamide hydrochloride], for which the half-maximal inhibitory concentration (IC50) (Table 1) stood at 0.0441 µM. For the molecule `Cc1ccc2c(NS(=O)(=O)Cc3ccc(C#N)cc3)c(F)ccc2c1Oc1ncccc1-c1ccnc(N[C@@H]2CNC[C@@H](F)C2)n1` (single isomer, unassigned) [Example 484, hydrochloride], the half-inhibitory concentration (IC50) (Table 2) was determined as 0.005 µM. Take `Cc1ccc2c(NS(=O)(=O)C[C@@H]3CC34CC4)c(F)ccc2c1Oc1ncccc1-c1ccnc(N[C@H]2CCCNC2)n1` (single isomer, unassigned) [Example 473, hydrochloride]: the half-maximal inhibitory concentration (IC50) (Table 2) was determined as 0.076 µM.

In the case of `CC[C@H](C)C(=O)Nc1cccc2c(Oc3ncccc3-c3ccnc(N[C@H]4CCCNC4)n3)c(C)ccc12` [Example 203, (S)-2-methyl-N-(6-methyl-5-((3-(2-(((S)-piperidin-3-yl)amino)pyrimidin-4-yl)pyridin-2-yl)oxy)naphthalen-1-yl)butanamide], the concentration for half-maximal inhibition (IC50) (Table 1) was 0.161 µM. Turning to `Cc1ccc2c(NC(=O)[C@H]3CC34CC4)c(F)ccc2c1Oc1ncccc1-c1ccnc(N[C@@H]2CNC[C@H](C)C2)n1` (single isomer, unassigned) [Example 388], under “Table 1”, the IC50 turned out to be 0.136 µM. `Cc1ccc2c(N3CCC(O)C3)cccc2c1Oc1ncccc1-c1ccnc(N[C@H]2CCCNC2)n1` (single isomer, unassigned) [Example 408]: the IC50 (Table 2) amounted to 0.47 µM. As to `Cc1ccc2c(-c3ccccn3)cccc2c1Oc1ncccc1-c1ccnc(N[C@H]2CCCNC2)n1` [Example 353, (S)-4-(2-((2-Methyl-5-(pyridin-2-yl)naphthalen-1-yl)oxy)pyridin-3-yl)-N-(piperidin-3-yl)pyrimidin-2-amine], for the setting “Table 1”, the half-maximal inhibitory concentration (IC50) came to 0.133 µM. `Cc1ccc2c(NS(=O)(=O)N(C)CC(F)(F)F)c(F)ccc2c1Oc1ncccc1-c1ccnc(N[C@@H]2CNC[C@@H](F)C2)n1` (single isomer, unassigned) [Example 500, hydrochloride]: the 50% inhibitory concentration (IC50) (Table 2) was 0.0087 µM. Regarding `Cc1ccc2c(NS(=O)(=O)CC(C)(C)C)cccc2c1Oc1ncccc1-c1ccnc(N[C@H]2CCCNC2)n1` [Example 139, (S)-2,2-Dimethyl-N-(6-methyl-5-((3-(2-(piperidin-3-ylamino)pyrimidin-4-yl)pyridin-2-yl)oxy)naphthalen-1-yl)propane-1-sulfonamide], the IC50 (Table 1) came to 0.241 µM. Regarding `Cc1ccc2c(NCC(C#N)C(C)C)cccc2c1Oc1ncccc1-c1ccnc(N[C@H]2CCCNC2)n1` (single isomer, unassigned) [Example 422], the half-maximal inhibitory concentration (IC50) (Table 2) is 0.083 µM. For the molecule `Cc1ccc2c(NC[C@H](O)C(F)(F)F)cccc2c1Oc1ncccc1-c1ccnc(N[C@H]2CCCNC2)n1` [Example 299], for the setting “Table 1”, the IC50 came to 0.00858 µM.
